Structures can show the parent of a compound that is named as a salt.

From patent US10377753B2, “Substituted 4-azaindoles and their use as GluN2B receptor modulators” (Janssen Pharmaceutica NV, priority 2015, dated 2019) come the findings set out here.

Chain of cloned human NR1/NR2B ion channels (Q13224 27-1484, other chains not shown): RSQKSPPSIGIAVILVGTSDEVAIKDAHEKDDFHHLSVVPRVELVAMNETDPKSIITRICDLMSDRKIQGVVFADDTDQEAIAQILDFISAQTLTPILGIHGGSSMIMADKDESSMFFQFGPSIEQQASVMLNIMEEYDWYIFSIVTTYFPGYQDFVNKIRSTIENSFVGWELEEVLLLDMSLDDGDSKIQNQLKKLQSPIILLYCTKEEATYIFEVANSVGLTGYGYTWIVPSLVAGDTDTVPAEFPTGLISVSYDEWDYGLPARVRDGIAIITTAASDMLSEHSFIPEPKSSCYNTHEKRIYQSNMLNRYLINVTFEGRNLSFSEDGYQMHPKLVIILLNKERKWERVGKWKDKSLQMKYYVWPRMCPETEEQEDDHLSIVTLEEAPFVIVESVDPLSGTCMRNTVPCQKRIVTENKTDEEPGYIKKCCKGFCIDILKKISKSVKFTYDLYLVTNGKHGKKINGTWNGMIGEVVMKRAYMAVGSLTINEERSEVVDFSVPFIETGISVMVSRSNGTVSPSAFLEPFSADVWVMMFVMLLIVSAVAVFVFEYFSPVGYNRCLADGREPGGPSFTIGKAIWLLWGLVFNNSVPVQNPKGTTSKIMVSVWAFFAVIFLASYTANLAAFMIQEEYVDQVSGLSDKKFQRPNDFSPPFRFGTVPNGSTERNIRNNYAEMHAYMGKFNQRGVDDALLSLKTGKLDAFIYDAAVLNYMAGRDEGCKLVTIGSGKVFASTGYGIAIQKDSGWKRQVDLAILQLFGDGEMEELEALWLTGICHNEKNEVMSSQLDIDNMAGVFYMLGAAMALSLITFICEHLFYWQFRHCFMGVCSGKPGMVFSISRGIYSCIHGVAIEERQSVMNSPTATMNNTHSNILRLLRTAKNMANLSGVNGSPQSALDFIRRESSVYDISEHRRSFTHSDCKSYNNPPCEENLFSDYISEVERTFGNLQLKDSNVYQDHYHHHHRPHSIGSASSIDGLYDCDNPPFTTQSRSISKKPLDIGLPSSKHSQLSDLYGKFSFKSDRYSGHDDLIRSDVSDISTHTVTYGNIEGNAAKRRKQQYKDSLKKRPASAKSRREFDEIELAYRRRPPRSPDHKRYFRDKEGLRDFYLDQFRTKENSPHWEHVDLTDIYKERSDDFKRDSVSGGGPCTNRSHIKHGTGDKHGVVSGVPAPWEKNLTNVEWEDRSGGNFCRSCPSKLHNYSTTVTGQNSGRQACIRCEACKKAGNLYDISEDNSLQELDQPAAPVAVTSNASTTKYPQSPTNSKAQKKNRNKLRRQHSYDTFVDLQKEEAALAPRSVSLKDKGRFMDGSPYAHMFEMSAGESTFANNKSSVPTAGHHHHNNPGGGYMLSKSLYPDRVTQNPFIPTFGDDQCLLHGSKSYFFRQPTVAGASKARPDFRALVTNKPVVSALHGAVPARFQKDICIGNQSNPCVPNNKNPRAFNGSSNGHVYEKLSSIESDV

The test addresses cloned human NR1/NR2B ion channels (Homo sapiens (Human), UniProt Q05586+Q13224). Nature of the test: HNR2BC: effects of test articles on cloned human NR1/NR2B ion channels expressed in mammalian cells (FLIPR calcium flux). It is filed as cell-based. As to conditions: cloned human NR1/NR2B, Table 5. A digest of the protocol:
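In a stable Tet-On-induced cell line expressing human GluN1/GluN2B, Calcium 5-loaded cells were preincubated 5 min with compound, then stimulated 5 min with glutamate at ~EC80 plus 10 μM glycine, in pH 7.4 HEPES buffer. FLIPR calcium fluorescence was normalized to control wells.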
In general terms: Calcium assays in cells follow changes in intracellular calcium, usually with a dye or a luminescent sensor.
As to `Cc1cc(-c2cnc3ccn(CCn4cccn4)c3c2)ccc1F` [Example 181, 6-(4-Fluoro-3-methyl-phenyl)-1-(2-pyrazol-1-ylethyl)pyrrolo[3,2-b]pyridine trifluoroacetate salt], the IC50 (in general, the concentration needed to halve the response being measured) was 794 nM.
For the molecule `O=C(Cn1cc(F)c2ncc(-c3ccc(Cl)s3)cc21)N1CCC1` [Example 182, 1-(Azetidin-1-yl)-2-[6-(5-chloro-2-thienyl)-3-fluoro-pyrrolo[3,2-b]pyridin-1-yl]ethanone], the IC50 was 3980 nM.
In the case of `Cc1cc(-c2cnc3ccn(Cc4ncccn4)c3c2)ccc1F` [Example 183, 6-(4-Fluoro-3-methyl-phenyl)-1-(pyrimidin-2-ylmethyl)pyrrolo[3,2-b]pyridine trifluoroacetate salt] it was 31.6 nM; in that of `Cc1cc(-c2cnc3c(F)cn(CC(=O)N4CC(F)(F)C4)c3c2)ccc1F` [Example 185, 1-(3,3-Difluoroazetidin-1-yl)-2-[3-fluoro-6-(4-fluoro-3-methyl-phenyl)pyrrolo[3,2-b]pyridin-1-yl]ethanone], 100 nM; in that of `Cc1cc(-c2cnc3ccn(CC(=O)C4CC4)c3c2)ccc1F` [Example 186, 1-Cyclopropyl-2-[6-(4-fluoro-3-methyl-phenyl)pyrrolo[3,2-b]pyridin-1-yl]ethanone trifluoroacetate salt], 39.8 nM.
In the case of `Cc1cc(-c2cnc3ccn(CC(=O)C(C)C)c3c2)ccc1F` [Example 187, 1-[6-(4-Fluoro-3-methyl-phenyl)pyrrolo[3,2-b]pyridin-1-yl]-3-methyl-butan-2-one trifluoroacetate salt] it was 50.1 nM; in that of `Cc1cc(-c2cnc3ccn(CC(=O)N4CCC(O)CC4)c3c2)ccc1F` [Example 188, 2-[6-(4-Fluoro-3-methyl-phenyl)pyrrolo[3,2-b]pyridin-1-yl]-1-(4-hydroxy-1-piperidyl)ethanone trifluoroacetate salt], 50.1 nM; in that of `COC1CCN(C(=O)Cn2ccc3ncc(-c4ccc(F)c(C)c4)cc32)CC1` [Example 190, 2-[6-(4-Fluoro-3-methyl-phenyl)pyrrolo[3,2-b]pyridin-1-yl]-1-(4-methoxy-1-piperidyl)ethanone trifluoroacetate salt], 251 nM.
Next, `Cc1cc(-c2cnc3ccn(CC(=O)N4CCC(F)CC4)c3c2)ccc1F` [Example 191, 2-[6-(4-Fluoro-3-methyl-phenyl)pyrrolo[3,2-b]pyridin-1-yl]-1-(4-fluoro-1-piperidyl)ethanone trifluoroacetate salt]: 316 nM; `Cc1cc(-c2cnc3ccn(CC(=O)N4CCC(CF)CC4)c3c2)ccc1F` [Example 192, 2-[6-(4-Fluoro-3-methyl-phenyl)pyrrolo[3,2-b]pyridin-1-yl]-1-[4-(fluoromethyl)-1-piperidyl]ethanone trifluoroacetate salt]: 79.4 nM.
Regarding `Cc1cc(-c2cnc3ccn(CC(=O)N4CCOC(C)(C)C4)c3c2)ccc1F` [Example 197, 1-(2,2-Dimethylmorpholin-4-yl)-2-[6-(4-fluoro-3-methyl-phenyl)pyrrolo[3,2-b]pyridin-1-yl]ethanone trifluoroacetate salt], the 50% inhibitory concentration (IC50) is 1580 nM.
In the case of `Cc1cc(-c2cnc3ccn(CC(=O)N4CCCC4(C)C)c3c2)ccc1F` [Example 200, 1-(2,2-Dimethylpyrrolidin-1-yl)-2-[6-(4-fluoro-3-methyl-phenyl)pyrrolo[3,2-b]pyridin-1-yl]ethanone trifluoroacetate salt] it was 251 nM; in that of `Cc1cc(-c2cnc3ccn(CC(=O)N4CC[C@@H](F)C4)c3c2)ccc1F` [Example 201, 2-[6-(4-Fluoro-3-methyl-phenyl)pyrrolo[3,2-b]pyridin-1-yl]-1-[(3R)-3-fluoropyrrolidin-1-yl]ethanone trifluoroacetate salt], 3980 nM; in that of `CC1(O)CN(C(=O)Cn2ccc3ncc(-c4ccc(F)cc4)cc32)C1` [Example 202, 2-[6-(4-Fluorophenyl)pyrrolo[3,2-b]pyridin-1-yl]-1-(3-hydroxy-3-methyl-azetidin-1-yl)ethanone], 126 nM.
Next, `O=C(Cn1ccc2ncc(-c3ccc(F)cc3)cc21)N1CC(O)(C(F)(F)F)C1` [Example 203, 2-[6-(4-Fluorophenyl)pyrrolo[3,2-b]pyridin-1-yl]-1-[3-hydroxy-3-(trifluoromethyl)azetidin-1-yl]ethanone]: 398 nM.
Turning to `O=C(Cn1ccc2ncc(-c3ccc(F)cc3)cc21)N1CC(F)C1` [Example 204, 1-(3-Fluoroazetidin-1-yl)-2-[6-(4-fluorophenyl)pyrrolo[3,2-b]pyridin-1-yl]ethanone], the 50% inhibitory concentration (IC50) was 1580 nM.
Next, `CN(C(=O)Cn1ccc2ncc(-c3ccc(F)cc3)cc21)C1CC1` [Example 205, N-Cyclopropyl-2-[6-(4-fluorophenyl)pyrrolo[3,2-b]pyridin-1-yl]-N-methyl-acetamide]: 50.1 nM; `O=C(Cn1ccc2ncc(-c3ccc(F)cc3)cc21)N1CC(CO)C1` [Example 206, 2-[6-(4-Fluorophenyl)pyrrolo[3,2-b]pyridin-1-yl]-1-[3-(hydroxymethyl)azetidin-1-yl]ethanone]: 316 nM.
In the case of `COC1CN(C(=O)Cn2ccc3ncc(-c4ccc(F)cc4)cc32)C1` [Example 207, 2-[6-(4-Fluorophenyl)pyrrolo[3,2-b]pyridin-1-yl]-1-(3-methoxyazetidin-1-yl)ethanone], the half-maximal inhibitory concentration (IC50) was 316 nM.
Consider `Cc1cc(-c2cnc3ccn(CC(=O)N4CC5(CC5)C4)c3c2)ccc1F` [Example 208, 1-(5-Azaspiro[2.3]hexan-5-yl)-2-[6-(4-fluoro-3-methyl-phenyl)pyrrolo[3,2-b]pyridin-1-yl]ethanone trifluoroacetate salt], for which the IC50 was 316 nM.
Take `Cc1cc(-c2cnc3ccn(CC(=O)N4CCC(C)(O)CC4)c3c2)ccc1F` [Example 209, 2-[6-(4-Fluoro-3-methyl-phenyl)pyrrolo[3,2-b]pyridin-1-yl]-1-(4-hydroxy-4-methyl-1-piperidyl)ethanone trifluoroacetate salt]: the IC50 is 200 nM.
Consider `O=C(Cn1ccc2ncc(-c3ccc(F)cc3)cc21)N1CC(O)C1` [Example 211, 2-[6-(4-Fluorophenyl)pyrrolo[3,2-b]pyridin-1-yl]-1-(3-hydroxyazetidine-1-yl)ethanone], for which the IC50 was 398 nM.
Next, `N#CC1CN(C(=O)Cn2ccc3ncc(-c4ccc(F)cc4)cc32)C1` [Example 212, 1-[2-[6-(4-Fluorophenyl)pyrrolo[3,2-b]pyridin-1-yl]acetyl]azetidine-3-carbonitrile]: 316 nM.
Next, `O=C(Cn1ccc2ncc(-c3ccc(F)cc3)cc21)N1CC(F)(F)C1` [Example 213, 1-(3,3-Difluoroazetidin-1-yl)-2-[6-(4-fluorophenyl)pyrrolo[3,2-b]pyridin-1-yl]ethanone]: 631 nM; `CC1CN(C(=O)Cn2ccc3ncc(-c4ccc(F)cc4)cc32)C1` [Example 214, 2-[6-(4-Fluorophenyl)pyrrolo[3,2-b]pyridin-1-yl]-1-(3-methylazetidin-1-yl)ethanone]: 100 nM.
In the case of `CC1(C)CN(C(=O)Cn2ccc3ncc(-c4ccc(F)cc4)cc32)C1` [Example 215, 1-(3,3-Dimethylazetidin-1-yl)-2-[6-(4-fluorophenyl)pyrrolo[3,2-b]pyridin-1-yl]ethanone] it was 158 nM; in that of `O=C1CCN(C(=O)Cn2ccc3ncc(-c4ccc(F)cc4)cc32)C1` [Example 216, 1-[2-[6-(4-Fluorophenyl)pyrrolo[3,2-b]pyridin-1-yl]acetyl]pyrrolidin-3-one trifluoroacetate salt], 1260 nM.
Regarding `O=C(Cn1ccc2ncc(-c3ccc(F)cc3)cc21)N1CCC(F)(F)C1` [Example 217, 1-(3,3-Difluoropyrrolidin-1-yl)-2-[6-(4-fluorophenyl)pyrrolo[3,2-b]pyridin-1-yl]ethanone], the IC50 was 316 nM.
In the case of `Cc1cccc(-c2cnc3ccn(CC(=O)C4CC4)c3c2)c1` [Example 219, 1-Cyclopropyl-2-[6-(m-tolyl)pyrrolo[3,2-b]pyridin-1-yl]ethanone] it was 501 nM.
Next, `O=C(Cn1ccc2ncc(-c3ccccc3)cc21)C1CC1` [Example 220, 1-Cyclopropyl-2-(6-phenylpyrrolo[3,2-b]pyridin-1-yl)ethanone]: 50.1 nM; `O=C(Cn1ccc2ncc(-c3cccc(F)c3)cc21)C1CC1` [Example 221, 1-Cyclopropyl-2-[6-(3-fluorophenyl)pyrrolo[3,2-b]pyridin-1-yl]ethanone]: 79.4 nM.
As for `O=C(Cn1ccc2ncc(-c3ccc(F)cc3)cc21)C1CC1` [Example 222, 1-Cyclopropyl-2-[6-(4-fluorophenyl)pyrrolo[3,2-b]pyridin-1-yl]ethanone], the IC50 is 79.4 nM.
Take `Cc1c(F)ccc(-c2cnc3ccn(CC(=O)C(C)C)c3c2)c1C` [Example 223, 1-[6-(4-Fluoro-2,3-dimethyl-phenyl)pyrrolo[3,2-b]pyridin-1-yl]-3-methyl-butan-2-one]: the concentration for half-maximal inhibition (IC50) was 79.4 nM.
As to `CCc1cccc(-c2cnc3ccn(CC(=O)C(C)C)c3c2)c1` [Example 224, 1-[6-(3-Ethylphenyl)pyrrolo[3,2-b]pyridin-1-yl]-3-methyl-butan-2-one], the IC50 is 398 nM.
Take `Cc1cccc(-c2cnc3ccn(CC(=O)C(C)C)c3c2)c1C` [Example 225, 1-[6-(2,3-Dimethylphenyl)pyrrolo[3,2-b]pyridin-1-yl]-3-methyl-butan-2-one]: the half-inhibitory concentration (IC50) is 79.4 nM.
Next, `O=C(Cn1ccc2ncc(-c3ccc(F)cc3)cc21)c1ccccc1` [Example 226, 2-[6-(4-Fluorophenyl)pyrrolo[3,2-b]pyridin-1-yl]-1-phenyl-ethanone]: 200 nM; `O=C(Cn1ccc2ncc(-c3ccc(F)cc3)cc21)c1ccc(F)cc1` [Example 227, 1-(4-Fluorophenyl)-2-[6-(4-fluorophenyl)pyrrolo[3,2-b]pyridin-1-yl]ethanone]: 794 nM; `CC(C)NC(=O)Cn1ccc2ncc(-c3ccc(F)cc3)cc21` [Example 229, 2-[6-(4-Fluorophenyl)pyrrolo[3,2-b]pyridin-1-yl]-N-isopropyl-acetamide]: 501 nM.
